# Measurements published in the supplement of paper PMC10307832.
# What was measured:
# Test in all cases: relative viability (nuclei count vs DMSO), 5 days (fraction); higher = more cells survive
# [1] = compound: CC1CC(=O)N(C2=CN=C(N=C2N1C3CCCC3)NC4=C(C=C(C=C4)C(=O)NC5CCN(CC5)C)OC)C [NPK76-II-72-1] + Nc1nc2[nH]cc(CCc3ccc(C(=O)N[C@@H](CCC(=O)O)C(=O)O)cc3)c2c(=O)[nH]1 [Pemetrexed] (partner 0.2 µM)
# In short: (§1)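 Medians of duplicate plates are given as relative viability. That measure is the nuclei count in treated wells divided by the count in vehicle wells. Counts were taken on 4× images of lung cancer cell lines in 1536-well plates, 5 days after pin-tool dosing the day after seeding with one drug alone or a fixed anchor-drug dose plus five library-drug doses (not always all listed) in √10 steps.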
# [2] = compound: CC1CC(=O)N(C2=CN=C(N=C2N1C3CCCC3)NC4=C(C=C(C=C4)C(=O)NC5CCN(CC5)C)OC)C [NPK76-II-72-1] + Cc1nc(Nc2ncc(C(=O)Nc3c(C)cccc3Cl)s2)cc(N2CCN(CCO)CC2)n1 [Dasatinib] (partner 0.075 µM)
# In short: as §1
# BI-2536 + Lapatinib = compound: CC[C@@H]1C(=O)N(C)c2cnc(Nc3ccc(C(=O)NC4CCN(C)CC4)cc3OC)nc2N1C1CCCC1 [BI-2536] + CS(=O)(=O)CCNCc1ccc(-c2ccc3ncnc(Nc4ccc(OCc5cccc(F)c5)c(Cl)c4)c3c2)o1 [Lapatinib] (partner 2 µM)
# In short: as §1
# [3] = compound: CC1CC(=O)N(C2=CN=C(N=C2N1C3CCCC3)NC4=C(C=C(C=C4)C(=O)NC5CCN(CC5)C)OC)C [NPK76-II-72-1] + C[C@]1(O)C[C@@H](c2nc(-c3ccc4ccc(-c5ccccc5)nc4c3)c3c(N)nccn32)C1 [Linsitinib] (partner 1 µM)
# In short: as §1
Cell Line,relative viability ([1]; first compound 0.01 µM),relative viability ([1]; first compound 0.03162 µM),relative viability ([1]; first compound 0.1 µM),relative viability ([1]; first compound 0.3162 µM),relative viability ([1]; first compound 1 µM),relative viability ([2]; first compound 0.01 µM),relative viability ([2]; first compound 0.03162 µM),relative viability ([2]; first compound 0.1 µM),relative viability ([2]; first compound 0.3162 µM),relative viability ([2]; first compound 1 µM),relative viability (BI-2536 + Lapatinib; first compound 0.01 µM),relative viability (BI-2536 + Lapatinib; first compound 0.03162 µM),relative viability (BI-2536 + Lapatinib; first compound 0.1 µM),relative viability (BI-2536 + Lapatinib; first compound 0.3162 µM),relative viability (BI-2536 + Lapatinib; first compound 1 µM),relative viability ([3]; first compound 0.01 µM),relative viability ([3]; first compound 0.03162 µM),relative viability ([3]; first compound 0.1 µM),relative viability ([3]; first compound 0.3162 µM),relative viability ([3]; first compound 1 µM)
NCI-H2342,0.74,0.755,0.812,0.584,0.772,0.345,0.301,0.328,0.262,0.346,–,–,–,–,–,–,–,–,–,–
SK-MES-1,0.929,0.968,0.989,1.01,1.12,0.468,0.352,0.399,0.341,0.403,0.465,0.45,0.503,0.213,0.186,1.05,1.07,0.994,0.995,1.15
HCC-366,0.127,0.149,0.132,0.138,0.143,0.593,0.633,0.638,0.606,0.635,1.06,0.682,0.04,0.0163,0.0221,0.54,0.688,0.704,0.707,0.777
201T,0.344,0.319,0.338,0.324,0.333,0.574,0.614,0.52,0.525,0.59,0.946,1.03,1.03,1.04,0.38,1.01,0.969,1.06,1.06,1.09
HCC-827,0.293,0.275,0.302,0.264,0.278,0.252,0.319,0.435,0.388,0.37,0.209,0.117,0.176,0.178,0.157,0.891,0.91,0.939,0.855,1.01
NCI-H441,0.293,0.266,0.246,0.274,0.25,0.565,0.709,0.452,0.541,0.727,–,–,–,–,–,0.479,0.696,0.492,0.265,0.65
NCI-H1703,–,–,–,–,–,–,–,–,–,–,0.956,–,0.323,0.174,0.113,0.428,0.65,0.621,0.645,0.996
Calu-6,–,–,–,–,–,–,–,–,–,–,0.957,0.666,0.703,0.122,0.132,0.981,0.912,0.897,0.948,0.946
HCC-44,0.65,0.689,0.613,0.619,0.684,–,–,–,–,–,1.07,0.988,0.287,0.0973,0.0863,0.634,0.701,0.635,0.681,0.716
NCI-H1299,–,–,–,–,–,–,–,–,–,–,0.933,0.933,0.69,0.291,0.235,0.999,0.96,1.01,0.98,1.03
NCI-H727,–,–,–,–,–,0.327,0.298,0.316,0.397,0.409,0.972,0.853,0.512,0.268,0.242,0.233,0.259,0.27,0.287,0.331
LCLC-103H,–,0.441,0.425,0.472,0.442,0.418,0.442,0.404,0.535,0.447,–,–,–,–,–,1.04,1.16,1.02,1.03,1.01
ABC-1,–,–,–,–,–,–,0.578,0.622,0.573,0.614,1.23,1.39,1.04,0.643,0.529,0.599,0.558,0.861,0.703,0.767
NCI-H1650,0.325,0.368,0.345,0.399,0.358,0.308,0.314,0.405,0.293,0.265,0.775,0.649,0.176,0.151,0.124,–,–,–,–,–
ChaGo-K-1,0.243,0.259,0.261,0.246,0.257,0.577,0.624,0.505,0.53,0.596,–,–,–,–,–,–,–,–,–,–
NCI-H1648,0.633,0.648,0.702,0.739,0.732,–,–,–,–,–,–,–,–,–,–,–,–,–,–,–
A549,–,–,–,–,–,–,–,–,–,–,1.05,0.813,0.476,0.053,0.0394,0.516,0.651,0.538,0.417,0.54
NCI-H522,0.839,0.914,1.01,–,0.797,0.77,0.887,1.09,0.86,0.828,–,–,–,–,–,–,–,–,–,–
NCI-H2170,0.407,0.26,0.269,0.245,0.283,0.599,0.487,0.598,0.315,0.762,0.291,0.273,0.205,0.199,0.171,–,–,–,–,–
NCI-H1623,–,–,–,–,–,0.562,0.522,0.554,0.401,0.545,–,–,–,–,–,–,–,–,–,–
SW 900,0.445,0.49,0.493,0.463,0.493,0.496,0.574,0.378,0.78,0.572,–,–,–,–,–,–,–,–,–,–
IA-LM,–,–,–,–,–,–,–,–,–,–,0.699,0.639,0.408,0.139,0.0816,0.582,0.684,0.435,0.597,0.809
EBC-1,–,–,–,–,–,–,–,–,–,–,0.21,0.194,0.203,0.174,0.155,0.853,0.858,0.886,0.922,1.13
